Values quoted from earlier work, collected in patent US20110152382A1, “Composition of molecular elements for phosphorylase kinase inhibition” (priority 2009, published 2011).

Key:
[1] = tested on: phosphorylase kinase; settings: previously reported by the inventor
[2] = tested on: phosphorylase kinase

Row | Compound | phosphorylase kinase activity in psoriatic skin [1] | anti-phosphorylase kinase activity [2]
1 | COc1cc(/C=C/C(=O)CC(=O)/C=C/c2ccc(O)c(OC)c2)ccc1O [curcumin, diferuloylmethane] | suppression of phosphorylase kinase activity | selective phosphorylase kinase inhibitor
2 | curcumin glucuronate | – | do not have anti-phosphorylase kinase activity
